Measured values published in patent US20260001889A1, “COMPOSITIONS USEFUL FOR MODULATING SPLICING” (Skyhawk Therapeutics, Inc., priority 2022, published 2026).

Tests used:
total ATXN3 protein = experiment: ATXN3 Total Protein Assay (Mesoscale Discovery, SK-N-MC cells); type: cell-based, Human; conditions: incubation for 48 hours, MSD assay
Procedure, shortened: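 Human SK-N-MC neuroblastoma cells treated with compound at 30 μM to 0.6 nM for 48 h, then lysed with protease inhibitors. Total ATXN3 quantified by MSD sandwich immunoassay (mouse capture, rabbit detect antibodies, anti-rabbit MSD-ST secondary) against recombinant ATXN3 standards.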

ATXN3-HiBiT protein = experiment: ATXN3 Total Protein Assay (Kelly-ATXN3-HiBiT luminescence); type: cell-based; conditions: Kelly-ATXN3-HiBiT cells, 48 h after addition of compound
Procedure, shortened: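 Kelly cells with homozygous C-terminal HiBiT knock-in on endogenous ATXN3, 2000 per well, dosed 24 h after seeding. HiBiT lytic luminescence read 48 h after compound; sister plate read with CellTiter-Glo for viability; fold change vs DMSO.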

[1] = system: ATXN3 transcripts containing exon 4; experiment: ATXN3 Quantitative Splicing Assay (qPCR, E4E5 primers/probe); type: cell-based; conditions: Homo sapiens, SK-N-MC cells, compounds for 24 h
Procedure, shortened: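 SK-N-MC human neuroblastoma cells treated 24 h with compound from 30 μM to 0.6 nM, 24 h after plating. Lysate cDNA was run in TaqMan qPCR, with primers/probe E4E5 detecting exon 4-containing ATXN3 transcripts and E8E9 measuring total ATXN3.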

Row | SMILES | IC50 (total ATXN3 protein) | EC50 (ATXN3-HiBiT protein) | IC50 [1]
1 | C#Cc1c(C[C@@H](N)COC)oc2c(NCc3nccs3)cc(Cl)nc12 [Compound 65, 2-[(R)-2-amino-3-methoxypropyl]-5-chloro-3-ethynyl-7-{[(1,3-thiazol-2-yl)methyl]amino}-1-oxa-4-azaindene] | 101 to 500 nM | 101 to 500 nM | 101 to 500 nM
2 | C#Cc1c(C[C@@H](N)COC)oc2c(NCc3ccco3)cc(Cl)nc12 [Compound 66, 2-[(R)-2-amino-3-methoxypropyl]-5-chloro-3-ethynyl-7-(furfurylamino)-1-oxa-4-azaindene] | 0.01 to 100 nM | 0.01 to 100 nM | 0.01 to 100 nM
3 | C#CC[C@H](N)Cc1oc2c(NCc3cccs3)cc(Cl)nc2c1Br [Compound 77, 2-[(S)-2-amino-4-pentynyl]-3-bromo-5-chloro-7-thenylamino-1-oxa-4-azaindene] | 0.01 to 100 nM | 0.01 to 100 nM | 0.01 to 100 nM
4 | NC(Cc1oc2c(NCc3cccs3)cc(Cl)nc2c1Br)CC1(F)CC1 (stereo not drawn) [Compound 85, 2-[2-amino-3-(1-fluorocyclopropyl)propyl]-3-bromo-5-chloro-7-thenylamino-1-oxa-4-azaindene] | 101 to 500 nM | 101 to 500 nM | 101 to 500 nM
5 | C#C[C@H](N)Cc1oc2c(NCc3cccs3)cc(Cl)nc2c1Br [Compound 88, 2-[(R)-2-amino-3-butynyl]-3-bromo-5-chloro-7-thenylamino-1-oxa-4-azaindene] | 0.01 to 100 nM | 101 to 500 nM | 0.01 to 100 nM
6 | C[C@H](F)[C@H](N)Cc1oc2c(NCc3nccs3)cc(Cl)nc2c1Br [Compound 90, 2-[(2R,3S)-2-amino-3-fluorobutyl]-3-bromo-5-chloro-7-{[(1,3-thiazol-2-yl)methyl]amino}-1-oxa-4-azaindene] | 0.01 to 100 nM | 0.01 to 100 nM | 0.01 to 100 nM
7 | C[C@@H](F)[C@H](N)Cc1oc2c(NCc3nccs3)cc(Cl)nc2c1Br [Compound 91, 2-[(2R,3R)-2-amino-3-fluorobutyl]-3-bromo-5-chloro-7-{[(1,3-thiazol-2-yl)methyl]amino}-1-oxa-4-azaindene] | 501 to 5000 nM | 501 to 5000 nM | 501 to 5000 nM
8 | C[C@H](F)[C@H](N)Cc1oc2c(NCc3ccccc3)cc(Cl)nc2c1Br [Compound 92, 2-[(2R,3S)-2-amino-3-fluorobutyl]-7-benzylamino-3-bromo-5-chloro-1-oxa-4-azaindene] | 101 to 500 nM | 101 to 500 nM | 101 to 500 nM
9 | C[C@@H](F)[C@H](N)Cc1oc2c(NCc3ccccc3)cc(Cl)nc2c1Br [Compound 93, 2-[(2R,3R)-2-amino-3-fluorobutyl]-7-benzylamino-3-bromo-5-chloro-1-oxa-4-azaindene] | 501 to 5000 nM | 501 to 5000 nM | 501 to 5000 nM
10 | C[C@H](F)[C@H](N)Cc1oc2c(NCc3ccc(F)s3)cc(Cl)nc2c1Br [Compound 94, 2-[(2R,3S)-2-amino-3-fluorobutyl]-3-bromo-5-chloro-7-{[(5-fluoro-2-thienyl)methyl]amino}-1-oxa-4-azaindene] | 101 to 500 nM | 101 to 500 nM | 101 to 500 nM
11 | C[C@@H](F)[C@H](N)Cc1oc2c(NCc3ccc(F)s3)cc(Cl)nc2c1Br [Compound 95, 2-[(2R,3R)-2-amino-3-fluorobutyl]-3-bromo-5-chloro-7-{[(5-fluoro-2-thienyl)methyl]amino}-1-oxa-4-azaindene] | 501 to 5000 nM | 501 to 5000 nM | 501 to 5000 nM
12 | C[C@H](F)[C@H](N)Cc1oc2c(NCc3sccc3F)cc(Cl)nc2c1Br [Compound 96, 2-[(2R,3S)-2-amino-3-fluorobutyl]-3-bromo-5-chloro-7-{[(3-fluoro-2-thienyl)methyl]amino}-1-oxa-4-azaindene] | 101 to 500 nM | 101 to 500 nM | 101 to 500 nM
13 | C[C@@H](F)[C@H](N)Cc1oc2c(NCc3sccc3F)cc(Cl)nc2c1Br [Compound 97, 2-[(2R,3R)-2-amino-3-fluorobutyl]-3-bromo-5-chloro-7-{[(3-fluoro-2-thienyl)methyl]amino}-1-oxa-4-azaindene] | 501 to 5000 nM | 501 to 5000 nM | 501 to 5000 nM
14 | N[C@H](Cc1oc2c(NCc3cccs3)cc(Cl)nc2c1Br)C1COC1 [Compound 98, 2-[(R)-2-amino-2-(3-oxetanyl)ethyl]-3-bromo-5-chloro-7-thenylamino-1-oxa-4-azaindene] | 501 to 5000 nM | 501 to 5000 nM | 501 to 5000 nM
15 | C[C@H](F)[C@H](N)Cc1oc2c(NCc3cccs3)cc(C#N)nc2c1Br [Compound 103, 2-[(2R,3S)-2-amino-3-fluorobutyl]-3-bromo-7-thenylamino-1-oxa-4-aza-5-indenecarbonitrile] | 101 to 500 nM | 101 to 500 nM | 101 to 500 nM
16 | Cc1c(C[C@@H](N)[C@H](C)F)oc2c(NCc3ccc(F)s3)cc(Cl)nc12 [Compound 105, 2-[(2R,3S)-2-amino-3-fluorobutyl]-5-chloro-7-{[(5-fluoro-2-thienyl)methyl]amino}-3-methyl-1-oxa-4-azaindene] | 501 to 5000 nM | 501 to 5000 nM | 101 to 500 nM
17 | Cc1c(C[C@@H](N)[C@H](C)F)oc2c(NCc3nccs3)cc(Cl)nc12 [Compound 106, 2-[(2R,3S)-2-amino-3-fluorobutyl]-5-chloro-3-methyl-7-{[(1,3-thiazol-2-yl)methyl]amino}-1-oxa-4-azaindene] | 101 to 500 nM | 101 to 500 nM | 101 to 500 nM
18 | Cc1c(C[C@@H](N)[C@H](C)F)oc2c(NCc3ccccc3)cc(Cl)nc12 [Compound 107, 2-[(2R,3S)-2-amino-3-fluorobutyl]-7-benzylamino-5-chloro-3-methyl-1-oxa-4-azaindene] | 501 to 5000 nM | 101 to 500 nM | 101 to 500 nM
19 | C[C@H](F)[C@H](N)Cc1oc2c(NCc3ccc(F)s3)cc(Cl)nc2c1Cl [Compound 108, 2-[(2R,3S)-2-amino-3-fluorobutyl]-3,5-dichloro-7-{[(5-fluoro-2-thienyl)methyl]amino}-1-oxa-4-azaindene] | 101 to 500 nM | 101 to 500 nM | 101 to 500 nM
20 | C[C@H](F)[C@H](N)Cc1oc2c(NCc3nccs3)cc(Cl)nc2c1Cl [Compound 109, 2-[(2R,3S)-2-amino-3-fluorobutyl]-3,5-dichloro-7-{[(1,3-thiazol-2-yl)methyl]amino}-1-oxa-4-azaindene] | 0.01 to 100 nM | 101 to 500 nM | 0.01 to 100 nM
21 | C[C@H](F)[C@H](N)Cc1oc2c(NCc3ccccc3)cc(Cl)nc2c1Cl [Compound 110, 2-[(2R,3S)-2-amino-3-fluorobutyl]-7-benzylamino-3,5-dichloro-1-oxa-4-azaindene] | 101 to 500 nM | 101 to 500 nM | 101 to 500 nM
22 | Cc1c(C[C@@H](N)[C@H](C)F)oc2c(NCc3cccs3)cc(C#N)nc12 [Compound 111, 2-[(2R,3S)-2-amino-3-fluorobutyl]-3-methyl-7-thenylamino-1-oxa-4-aza-5-indenecarbonitrile] | 101 to 500 nM | 101 to 500 nM | 101 to 500 nM
23 | C#Cc1cc(NCc2ccco2)c2oc(C[C@H](C)N)c(Br)c2n1 [Compound 112, 2-[(S)-2-aminopropyl]-3-bromo-5-ethynyl-7-(furfurylamino)-1-oxa-4-azaindene] | 101 to 500 nM | 0.01 to 100 nM | 101 to 500 nM
24 | COC[C@H](N)Cc1oc2c(NCc3ccncc3)cc(Cl)nc2c1Cl [Compound 113, 2-[(R)-2-amino-3-methoxypropyl]-3,5-dichloro-7-{[(4-pyridyl)methyl]amino}-1-oxa-4-azaindene] | 101 to 500 nM | 101 to 500 nM | 101 to 500 nM
25 | C[C@@H](F)[C@H](N)Cc1oc2c(NCc3ccco3)cc(Cl)nc2c1Br [Compound 114, 2-[(2R,3R)-2-amino-3-fluorobutyl]-3-bromo-5-chloro-7-(furfurylamino)-1-oxa-4-azaindene] | 501 to 5000 nM | 501 to 5000 nM | 501 to 5000 nM
26 | N[C@@H](COC1CC1)Cc1oc2c(NCc3cccs3)cc(Cl)nc2c1Br [Compound 115, 2-[(R)-2-amino-3-cyclopropoxypropyl]-3-bromo-5-chloro-7-thenylamino-1-oxa-4-azaindene] | 101 to 500 nM | 101 to 500 nM | 101 to 500 nM
27 | N[C@@H](COC(F)(F)F)Cc1oc2c(NCc3cccs3)cc(Cl)nc2c1Br [Compound 116, 2-[(R)-2-amino-3-trifluoromethoxypropyl]-3-bromo-5-chloro-7-thenylamino-1-oxa-4-azaindene] | 101 to 500 nM | 501 to 5000 nM | 101 to 500 nM
28 | N[C@@H](COC(F)F)Cc1oc2c(NCc3cccs3)cc(Cl)nc2c1Br [Compound 117, 2-[(R)-2-amino-3-difluoromethoxypropyl]-3-bromo-5-chloro-7-thenylamino-1-oxa-4-azaindene] | 0.01 to 100 nM | 0.01 to 100 nM | 0.01 to 100 nM
29 | C[C@H](F)[C@H](N)Cc1oc2c(NCc3ccco3)cc(Cl)nc2c1Br [Compound 118, 2-[(2R,3S)-2-amino-3-fluorobutyl]-3-bromo-5-chloro-7-(furfurylamino)-1-oxa-4-azaindene] | 0.01 to 100 nM | 0.01 to 100 nM | 0.01 to 100 nM
30 | C[C@H](F)[C@H](N)Cc1oc2c(NCc3ccncc3)cc(Cl)nc2c1Br [Compound 119, 2-[(2R,3S)-2-amino-3-fluorobutyl]-3-bromo-5-chloro-7-{[(4-pyridyl)methyl]amino}-1-oxa-4-azaindene] | 0.01 to 100 nM | 101 to 500 nM | 0.01 to 100 nM
